Results on 29 compounds are retold here after BindingDB's records for doi:10.1021/jm200866y (Merck Serono, 2011).

In general, IC50 refers to the concentration that gives 50% inhibition.

Test [1] in a line: Inhibition of CRTH2-mediated chemotaxis of human eosinophils towards PGD2 after 30 mins by fluorescence counter.
A short description of test [2]: Antagonist activity at CRTH2 in human blood cells assessed as inhibition of PGD2-induced eosinophil cell shape change after 10 mins by flow cytometry. In general terms: A flow cytometer gives signals particle by particle.

For the compound `O=C(O)COc1ccc(Cl)cc1C#Cc1ccccc1Cl`, the IC50 in test [1] was 123 nM. On to `O=C(O)COc1ccc(Cl)cc1C#Cc1cccc(Cl)c1`, for which the 50% inhibitory concentration (IC50) in test [2] was determined as 6900 nM.

Take `O=C(O)COc1ccc(Cl)cc1C#Cc1ccc(CO)cc1F`: in test [2], the half-inhibitory concentration (IC50) stood at 680 nM. For `O=C(O)COc1ccc(Cl)cc1C#Cc1cccc(S(=O)(=O)CCO)c1`, in test [2], the concentration for half-maximal inhibition (IC50) turned out to be 990 nM. Take `Cc1ccc(S(C)(=O)=O)cc1C#Cc1cc(Cl)ccc1OCC(=O)O`: the concentration for half-maximal inhibition (IC50) in test [2] amounted to 64 nM. For the compound `CS(=O)(=O)c1ccc(F)c(C#Cc2cc(Cl)ccc2OCC(=O)O)c1`, the half-maximal inhibitory concentration (IC50) in test [2] worked out at 95 nM. Same read-out and setting: to `CS(=O)(=O)c1ccc(Cl)c(C#Cc2cc(Cl)ccc2OCC(=O)O)c1` belongs 26 nM; to `CCCc1ccc(S(C)(=O)=O)cc1C#Cc1cc(Cl)ccc1OCC(=O)O`, 1200 nM; to `CC(C)c1ccc(S(C)(=O)=O)cc1C#Cc1cc(Cl)ccc1OCC(=O)O`, 360 nM. On the same count and under the same terms, under `CCCS(=O)(=O)c1ccc(C)c(C#Cc2cc(Cl)ccc2OCC(=O)O)c1` stands 81 nM; under `Cc1ccc(S(=O)(=O)C(C)C)cc1C#Cc1cc(Cl)ccc1OCC(=O)O`, 190 nM. On the same count and under the same terms, under `Cc1ccc(S(=O)(=O)CC(C)C)cc1C#Cc1cc(Cl)ccc1OCC(=O)O` stands 120 nM. As to `Cc1ccc(S(=O)(=O)c2ccccc2)cc1C#Cc1cc(Cl)ccc1OCC(=O)O`, the IC50 in test [2] turned out to be 260 nM. Same read-out and setting: to `Cc1ccc(S(=O)(=O)CCCO)cc1C#Cc1cc(Cl)ccc1OCC(=O)O` belongs 310 nM; to `CCCS(=O)(=O)c1ccc(F)c(C#Cc2cc(Cl)ccc2OCC(=O)O)c1`, 23 nM. On the same count and under the same terms, to `CC(C)S(=O)(=O)c1ccc(F)c(C#Cc2cc(Cl)ccc2OCC(=O)O)c1` belongs 91 nM; to `CCCS(=O)(=O)c1ccc(Cl)c(C#Cc2cc(Cl)ccc2OCC(=O)O)c1`, 23 nM; to `CC(C)S(=O)(=O)c1ccc(Cl)c(C#Cc2cc(Cl)ccc2OCC(=O)O)c1`, 67 nM. As for `Cc1ccc(S(=O)(=O)N(C)C)cc1C#Cc1cc(Cl)ccc1OCC(=O)O`, the half-maximal inhibitory concentration (IC50) in test [2] was 23 nM. Still for that read-out and setting: under `CCNS(=O)(=O)c1ccc(C)c(C#Cc2cc(Cl)ccc2OCC(=O)O)c1` stands 40 nM; under `Cc1ccc(S(=O)(=O)NC(C)C)cc1C#Cc1cc(Cl)ccc1OCC(=O)O`, 250 nM. Turning to `Cc1ccc(S(=O)(=O)N(C)C(C)C)cc1C#Cc1cc(Cl)ccc1OCC(=O)O`, the IC50 in test [2] is 140 nM. On the same count and under the same terms, under `Cc1ccc(S(=O)(=O)N2CCCCC2C)cc1C#Cc1cc(Cl)ccc1OCC(=O)O` (centres undefined) stands 310 nM; under `COCCN(C)S(=O)(=O)c1ccc(C)c(C#Cc2cc(Cl)ccc2OCC(=O)O)c1`, 77 nM. On the same count and under the same terms, under `COCCNS(=O)(=O)c1ccc(C)c(C#Cc2cc(Cl)ccc2OCC(=O)O)c1` stands 88 nM; under `CN(C)S(=O)(=O)c1cncc(C#Cc2cc(Cl)ccc2OCC(=O)O)c1`, 289 nM; under `O=C(O)COc1ccc(Cl)cc1C#Cc1ccc2c(c1)S(=O)(=O)c1ccccc1-2`, 4300 nM. As for `CCCS(=O)(=O)c1cccc(C#Cc2cc(Cl)ccc2OCC(=O)O)c1`, the half-inhibitory concentration (IC50) in test [2] was found to be 750 nM. Still for that read-out and setting: to `CCN(Cc1cc(-c2ccc(OC)cn2)ccc1-c1cc(CC(=O)O)ccc1OC)C(=O)C1CC1` belongs 3 nM.
